Measurements reported in ChEMBL document CHEMBL1649088, “Structural optimization of azadipeptide nitriles strongly increases association rates and allows the development of selective cathepsin inhibitors” (J Med Chem, 2011).
Values belong to the molecule of their own block, whether it stands above or below them. The source made the active and inactive calls. No cut-off for these calls is given here.

Experiments:
Procathepsin L = Procathepsin L (Homo sapiens, UniProt P07711); test: Inhibition of human recombinant cathepsin L after 30 mins by spectrophotometric assay
Chain of Procathepsin L (P07711 whole entry): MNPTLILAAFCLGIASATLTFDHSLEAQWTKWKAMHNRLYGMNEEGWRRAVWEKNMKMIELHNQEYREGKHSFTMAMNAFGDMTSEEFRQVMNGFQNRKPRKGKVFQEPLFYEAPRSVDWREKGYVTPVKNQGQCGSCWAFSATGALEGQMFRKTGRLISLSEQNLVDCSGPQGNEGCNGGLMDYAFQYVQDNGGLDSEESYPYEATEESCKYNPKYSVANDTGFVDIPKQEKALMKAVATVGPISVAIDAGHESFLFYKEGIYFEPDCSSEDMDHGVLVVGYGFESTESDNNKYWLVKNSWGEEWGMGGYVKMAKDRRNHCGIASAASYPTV

Cathepsin S = Cathepsin S (Homo sapiens, UniProt P25774); test: Inhibition of human cathepsin S after 30 mins by spectrophotometric assay
Chain of Cathepsin S (P25774 whole entry): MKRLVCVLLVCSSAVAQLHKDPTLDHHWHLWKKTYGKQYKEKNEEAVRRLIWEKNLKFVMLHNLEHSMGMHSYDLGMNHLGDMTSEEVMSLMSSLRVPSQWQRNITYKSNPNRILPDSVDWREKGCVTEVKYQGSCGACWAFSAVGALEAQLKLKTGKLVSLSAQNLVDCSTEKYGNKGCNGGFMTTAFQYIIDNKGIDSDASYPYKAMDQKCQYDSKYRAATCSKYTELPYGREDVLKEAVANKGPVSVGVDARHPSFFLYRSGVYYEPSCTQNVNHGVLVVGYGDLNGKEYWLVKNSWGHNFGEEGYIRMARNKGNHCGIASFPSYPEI

Cathepsin K = molecular target: T1, Cathepsin K (Homo sapiens, UniProt P43235); test: Inhibition of human recombinant cathepsin K after 30 mins by spectrophotometric assay
T1 sequence (P43235 whole entry): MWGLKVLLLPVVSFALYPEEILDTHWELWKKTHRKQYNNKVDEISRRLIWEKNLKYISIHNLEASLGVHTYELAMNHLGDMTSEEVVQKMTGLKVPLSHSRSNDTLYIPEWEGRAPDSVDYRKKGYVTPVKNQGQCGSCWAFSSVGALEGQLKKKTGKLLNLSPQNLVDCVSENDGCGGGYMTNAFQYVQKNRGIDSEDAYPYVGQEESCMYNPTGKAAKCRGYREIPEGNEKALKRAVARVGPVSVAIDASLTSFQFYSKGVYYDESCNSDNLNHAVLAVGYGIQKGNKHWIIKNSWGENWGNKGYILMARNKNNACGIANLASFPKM

Cathepsin B = Cathepsin B (Homo sapiens, UniProt P07858); test: Inhibition of human recombinant cathepsin B after 30 mins by spectrophotometric assay
Homo sapiens [1] = species on record: Homo sapiens; test: Selectivity ratio, ratio of Ki for human recombinant cathepsin L to Ki for human recombinant cathepsin K
Homo sapiens [2] = species on record: Homo sapiens; test: Selectivity ratio, ratio of Ki for human recombinant cathepsin B to Ki for human recombinant cathepsin K
Homo sapiens [3] = species on record: Homo sapiens; test: Selectivity ratio, ratio of Ki for human cathepsin S to Ki for human recombinant cathepsin K
[4] = molecular target: T2, Cathepsin K (Homo sapiens) (UniProt P43235); test: Reversible inhibition of human recombinant cathepsin K at 300 nM preincubated for 30 mins by spectrophotometric assay
T2 sequence (whole entry): T1 sequence (P43235 whole entry)

SMILES: CN(C#N)N(C)C(=O)CNC(=O)OCc1ccccc1
Ki (Procathepsin L): 860 nM
Ki (Cathepsin S): 800 nM
Ki (Cathepsin K): 260 nM
Ki (Cathepsin B): 840 nM

SMILES: CN(C#N)N(C)C(=O)[C@H](Cc1ccc(O)cc1)NC(=O)OCc1ccccc1
Ki (Procathepsin L): 0.36 nM
Ki (Cathepsin S): 0.86 nM
Ki (Cathepsin K): 0.16 nM
Ki (Cathepsin B): 0.38 nM

SMILES: CN(C#N)N(C)C(=O)[C@H](CC1CCCCC1)NC(=O)OCc1ccccc1
Ki (Procathepsin L): 0.4 nM
Ki (Cathepsin S): 0.2 nM
Ki (Cathepsin K): 0.071 nM
Ki (Cathepsin B): 0.48 nM

SMILES: C[C@H](NC(=O)OCc1ccccc1)C(=O)N(C)N(C)C#N
Ki (Procathepsin L): 480 nM
Ki (Cathepsin S): 9.1 nM
Ki (Cathepsin K): 33 nM
Ki (Cathepsin B): 55 nM

SMILES: Cc1nc(-c2ccc(NC(=O)N[C@@H](CC(C)C)C(=O)N(C)N(C)C#N)cc2)no1
Ki (Procathepsin L): 2 nM
Ki (Cathepsin S): 0.19 nM
Ki (Cathepsin K): 0.045 nM
Ki (Cathepsin B): 2.4 nM

SMILES: CN(C#N)N(C)C(=O)[C@H](Cc1ccccc1)NC(=O)OCc1ccccc1
Ki (Procathepsin L): 0.16 nM
Ki (Cathepsin S): 0.51 nM
Ki (Cathepsin K): 0.14 nM
Ki (Cathepsin B): 0.68 nM

SMILES: CC(C)C[C@H](NC(=O)OCc1ccccc1)C(=O)N(C)N(C)C#N
Ki (Procathepsin L): 0.9 nM
Ki (Cathepsin S): 0.33 nM
Ki (Cathepsin K): 0.064 nM
Ki (Cathepsin B): 0.43 nM

SMILES: CC(C)[C@H](NC(=O)OCc1ccccc1)C(=O)N(C)N(C)C#N
Ki (Procathepsin L): 1.5 nM
Ki (Cathepsin S): 1.5 nM
Ki (Cathepsin K): 0.87 nM
Ki (Cathepsin B): 4.3 nM

SMILES: CC[C@H](C)[C@H](NC(=O)OCc1ccccc1)C(=O)N(C)N(C)C#N
Ki (Procathepsin L): 2.6 nM
Ki (Cathepsin S): 0.83 nM
Ki (Cathepsin K): 0.46 nM
Ki (Cathepsin B): 0.88 nM

SMILES: Cc1nc(-c2ccc(CNC(=O)N[C@@H](CC(C)C)C(=O)N(C)N(C)C#N)cc2)no1
Ki (Procathepsin L): 1.4 nM
Ki (Cathepsin S): 0.17 nM
Ki (Cathepsin K): 0.11 nM
Ki (Cathepsin B): 2.8 nM

SMILES: CC(C)C[C@H](NC(=O)Nc1ccccc1)C(=O)N(C)N(C)C#N
Ki (Procathepsin L): 0.045 nM
Ki (Cathepsin S): 0.16 nM
Ki (Cathepsin K): 0.017 nM
Ki (Cathepsin B): 1.3 nM

SMILES: CC(C)C[C@H](NC(=O)NCc1ccccc1)C(=O)N(C)N(C)C#N
Ki (Procathepsin L): 0.39 nM
Ki (Cathepsin S): 0.2 nM
Ki (Cathepsin K): 0.011 nM
Ki (Cathepsin B): 0.65 nM

The next lines start with the values.

Ki (Procathepsin L): 940 nM
Ki (Cathepsin S): 140 nM
Ki (Cathepsin K): 2.9 nM
Ki (Cathepsin B): > 22000 nM
Ratio Ki (Homo sapiens [1]): 300
SMILES: CC(C)C[C@H](NC(=O)c1ccc(-c2noc(-c3cccs3)n2)cc1)C(=O)NCC#N

Ki (Procathepsin L): 2700 nM
Ki (Cathepsin S): 140 nM
Ki (Cathepsin K): 0.63 nM
Ki (Cathepsin B): 510 nM
Ratio Ki (Homo sapiens [1]): 4300
Ratio Ki (Homo sapiens [2]): 800
Ratio Ki (Homo sapiens [3]): 200
Activity [4]: Active
SMILES: CC(C)C[C@@H](C(=O)N(C)N(C)C#N)N(C)C(=O)c1ccc(-c2noc(-c3cccs3)n2)cc1

Ki (Procathepsin L): 4.4 nM
Ki (Cathepsin S): 0.32 nM
Ki (Cathepsin K): 0.022 nM
Ki (Cathepsin B): 2.4 nM
SMILES: CC(C)C[C@H](NC(=O)Nc1ccc(-c2noc(-c3cccs3)n2)cc1)C(=O)N(C)N(C)C#N

Ki (Procathepsin L): 1.1 nM
Ki (Cathepsin S): 0.16 nM
Ki (Cathepsin K): 0.072 nM
Ki (Cathepsin B): 1.3 nM
SMILES: CC(C)C[C@H](NC(=O)NCc1ccc(-c2noc(-c3cccs3)n2)cc1)C(=O)N(C)N(C)C#N

Ki (Procathepsin L): 4700 nM
Ki (Cathepsin S): 180 nM
Ki (Cathepsin K): 34 nM
Ki (Cathepsin B): > 22000 nM
SMILES: CC(C)C[C@H](NC(=O)Nc1ccc(-c2noc(-c3cccs3)n2)cc1)C(=O)NCC#N

Ki (Procathepsin L): > 22000 nM
Ki (Cathepsin S): > 22000 nM
Ki (Cathepsin K): 270 nM
Ki (Cathepsin B): > 22000 nM
SMILES: CC(C)C[C@@H](C(=O)NCC#N)N(C)C(=O)c1ccc(-c2noc(-c3cccs3)n2)cc1

Ki (Procathepsin L): 0.22 nM
Ki (Cathepsin S): 0.15 nM
Ki (Cathepsin K): 0.032 nM
Ki (Cathepsin B): 0.36 nM
SMILES: CC(C)C[C@H](NC(=O)c1ccc(-c2noc(-c3cccs3)n2)cc1)C(=O)N(C)N(C)C#N
